Laboratory results reported in patent US20260356860A1, “2-SUBSTITUTED 3,4A,5,7,8,8A-HEXAHYDRO-4H-THIOPYRANO[4,3-DJPYRIMIDIN-4-ONES FOR WOUND TREATMENT” (priority 2022, published 2026).

Assays:
Test in all cases: Bacteriostasis, log reduction
Type in all cases: cell-based
[1] = system: E. coli (derived from ATCC ® 25922 ™); settings: E. coli ATCC 25922
Experimental: (§1) In order to assess the log reduction capabilities of compounds of Formula (1), testing was performed on organisms that are found in acute and chronic wounds. Triplicate tubes were prepared for each bacteria using 50 μL of inoculum (about 1×10^6 CFU/mL) which was added to 450 μL of compound solution (compound of Formula (I)) (or 100 μL of inoculum in 900 μL of compound solution), resulting in a final inoculum of about 1×10^5 CFU/mL, as shown in Table 4.
(§2) Tubes were mixed with a vortex and then incubated in a shaking incubator at 175 RPM and 35° C. to 37° C.
(§3) Positive control in Tables 5a and 5b was 1 mL of 0.89% saline with 1 mL of the 1×10^6 CFU/mL of the organism.
(§4) For Compounds 1, 7, 8, 10, and 18 in Tables 6, 7-A, 7-B, 8, 9, 10-A, 10-B, and 11: The compound solutions were prepared with compound (30 mg), polysorbate 20 (1.6 mL), butylene glycol (1.6 mL), phosphatidyl choline (0.66 g), ethanol (1.6 mL), hydroxypropyl cellulose (0.26 g), and ultra pure water (24.9 mL).
(§5) XAV939 Control in Table X1 was XAV939 (30 mg), polysorbate 20 (1.6 mL), butylene glycol (1.6 mL), phosphatidyl choline (0.66 g), ethanol (1.6 mL), ultra pure water (24.9 mL), and hydroxypropyl cellulose (0.26 g).
(§6) GO-HA Control in Table X2 was GO-HA (30 mg), polysorbate 20 (1.6 mL), butylene glycol (1.6 mL), phosphatidyl choline (0.66 g), ethanol (1.6 mL), ultra pure water (24.9 mL), and hydroxypropyl cellulose (0.26 g).
(§7) For Compound 18+GO-HA in Tables 6 and X4: compound 18 (45 mg), GO-HA (45 mg), polysorbate 20 (2 mL), butylene glycol (2 mL), phosphotidyl choline (0.5 g), ethanol (2 mL), hydroxypropyl cellulose (0.40 g), and ultra pure water (40 mL).
(§8) For XAV939+GO-HA in Tables 6 and X3-A, and X3-B: XAV939 (45 mg), GO-HA (45 mg), butylene glycol (2 mL), polysorbate 20 (2 mL), phosphotidyl choline (0.5 g), ethanol (2 mL), hydroxypropyl cellulose (0.40 g), and ultra pure water (40 mL).
(§9) Testing was performed at two time points: 18 to 24 hours, and […].

[2] = system: E. faecalis (derived from ATCC ® 19433 ™); settings: E. faecalis ATCC 19433
Experimental: as §1, §2, §3, §4, §5, §6, §7, §8, §9

[3] = system: P. aeruginosa (derived from ATCC ® 15442 ™); settings: P. aeruginosa ATCC 15442
Experimental: as §1, §2, §3, §4, §5, §6, §7, §8, §9

[4] = system: S. aureus (MRSA) (derived from ATCC ® 33593 ™); settings: S. aureus (MRSA) ATCC 33593
Experimental: as §1, §2, §3, §4, §5, §6, §7, §8, §9

[5] = system: S. aureus (derived from ATCC ® 6538 ™); settings: S. aureus ATCC 6538
Experimental: as §1, §2, §3, §4, §5, §6, §7, §8, §9

Structure (SMILES): CC(C)(OCCO)c1ccc(-c2nc3c(c(=O)[nH]2)CSCC3)cc1 [Compound 8, 2-(4-(2-(2-hydroxyethoxy)propan-2-yl)phenyl)-3,5,7,8-tetrahydro-4H-thiopyrano[4,3-d]pyrimidin-4-one]
- Average result ([1]; 24 h): 200
- Log Reduction ([1]; 24 h): 3.1
- Log Value ([1]; 24 h): 2.3
- Average result ([1]; 72 h): <200
- Log Reduction ([1]; 72 h): >3.1
- Log Value ([1]; 72 h): <2.3
- Average result ([2]; 24 h): 3.4 × 10^5
- Log Reduction ([2]; 24 h): No
- Log Value ([2]; 24 h): 5.5
- Average result ([2]; 72 h): 6.5 × 10^4
- Log Reduction ([2]; 72 h): No
- Log Value ([2]; 72 h): 4.8
- Average result ([3]; 24 h): 7.3 × 10^2
- Log Reduction ([3]; 24 h): 2.5
- Log Value ([3]; 24 h): 2.9
- Average result ([3]; 72 h): <200
- Log Reduction ([3]; 72 h): >3.1
- Log Value ([3]; 72 h): <2.3
- Average result ([4]; 24 h): 3.3 × 10^6
- Log Reduction ([4]; 24 h): No
- Log Value ([4]; 24 h): 6.5
- Average result ([4]; 72 h): 1.0 × 10^6
- Log Reduction ([4]; 72 h): No
- Log Value ([4]; 72 h): 6.0
- Average result ([5]; 24 h): 5.4 × 10^4
- Log Reduction ([5]; 24 h): 0.6
- Log Value ([5]; 24 h): 4.7
- Average result ([5]; 72 h): <7.4 × 10^3
- Log Reduction ([5]; 72 h): >1.4
- Log Value ([5]; 72 h): <3.9

Structure (SMILES): O=c1[nH]c(-c2ccc(-c3ccc(Br)nc3)cc2)nc2c1CSCC2 [Compound 7, 2-(4-(6-bromopyridin-3-yl)phenyl)-3,5,7,8-tetrahydro-4H-thiopyrano [4,3-d]pyrimidin-4-one]
- Average result ([1]; 24 h): 3.2 × 10^5
- Log Reduction ([1]; 24 h): No
- Log Value ([1]; 24 h): 5.5
- Average result ([1]; 72 h): 2.7 × 10^4
- Log Reduction ([1]; 72 h): 1.0
- Log Value ([1]; 72 h): 4.4
- Average result ([2]; 24 h): 9.3 × 10^5
- Log Reduction ([2]; 24 h): No
- Log Value ([2]; 24 h): 6.0
- Average result ([2]; 72 h): 6.9 × 10^5
- Log Reduction ([2]; 72 h): No
- Log Value ([2]; 72 h): 5.8
- Average result ([3]; 24 h): <200
- Log Reduction ([3]; 24 h): >3.1
- Log Value ([3]; 24 h): <2.3
- Average result ([3]; 72 h): <200
- Log Reduction ([3]; 72 h): >3.1
- Log Value ([3]; 72 h): <2.3
- Average result ([4]; 24 h): 2.7 × 10^3
- Log Reduction ([4]; 24 h): 1.2
- Log Value ([4]; 24 h): 3.4
- Average result ([4]; 72 h): 1.4 × 10^5
- Log Reduction ([4]; 72 h): No
- Log Value ([4]; 72 h): 5.1
- Average result ([5]; 24 h): 7.3 × 10^2
- Log Reduction ([5]; 24 h): 2.4
- Log Value ([5]; 24 h): 2.9
- Average result ([5]; 72 h): <200
- Log Reduction ([5]; 72 h): >3.0
- Log Value ([5]; 72 h): <2.3
